From US20210078988A1, “MODULATORS OF INDOLEAMINE 2,3-DIOXYGENASE” (GLAXOSMITHKLINE INTELLECTUAL PROPERTY DEVELOPMENT LIMITED, priority 2017, published 2021) come the findings set out here.

T1 sequence (P14902 whole entry): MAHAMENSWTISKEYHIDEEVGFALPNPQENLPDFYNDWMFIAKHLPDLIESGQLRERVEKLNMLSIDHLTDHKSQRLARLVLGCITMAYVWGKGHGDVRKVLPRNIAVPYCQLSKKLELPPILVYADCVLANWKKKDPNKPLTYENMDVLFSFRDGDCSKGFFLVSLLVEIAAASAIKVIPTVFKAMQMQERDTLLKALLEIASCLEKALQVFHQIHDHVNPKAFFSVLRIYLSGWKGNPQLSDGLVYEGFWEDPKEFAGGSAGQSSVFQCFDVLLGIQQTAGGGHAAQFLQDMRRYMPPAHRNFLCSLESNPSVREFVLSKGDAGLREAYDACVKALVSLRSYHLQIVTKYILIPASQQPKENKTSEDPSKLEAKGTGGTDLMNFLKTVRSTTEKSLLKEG

The test addresses T1, indoleamine 2, 3-dioxygenase (IDO1) (Homo sapiens, UniProt P14902).
T1 construct: human peripheral blood mononuclear cells (PBMC) (PB003F; host or cells: human PBMC stimulated with IFN-gamma and LPS
Kind of test: PBMC IDO1 assay (kynurenine detection via mass spectrometry). Format: cell-based. The note with it: human PBMC stimulated with IFN-γ and LPS, 2 days, kynurenine by mass spectrometry; read-out: IDO1 PBMC pIC50 (converted). Put shortly: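 Kynurenine output, read by RapidFire mass spectrometry as a ratio to internal standard, reflected IDO1 activity in human PBMCs induced with 100 ng/ml IFN-γ plus 50 ng/ml LPS and dosed with compound (11 points, 3-fold) over 2 days. Cytotoxicity was tracked by CellTiter-Glo; XC50 values came from Hill-slope fits.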
Turning to `CC(C)CC(CC1CCN(C(=O)Oc2ccccc2)CC1)NC(=O)c1ccc(Cl)cc1` (stereo not drawn) [Example 67, phenyl 4-(2-(4-chlorobenzamido)-4-methylpentyl)piperidine-1-carboxylate], the IC50 is 12.6 nM. With `CC(C)(C)OC(=O)N1CCC(CC(NC(=O)c2ccc(Cl)cc2)c2ccccc2)CC1` (stereo not drawn) [Example 68, tert-butyl 4-(2-(4-chlorobenzamido)-2-phenylethyl)piperidine-1-carboxylate] the figure was 15.8 nM; with `Cc1ccc(C(=O)NC(CC2CCN(C(=O)OC(C)(C)C)CC2)c2ccccc2)s1` (stereo not drawn) [Example 69, tert-butyl 4-(2-(5-methylthiophene-2-carboxamido)-2-phenylethyl)piperidine-1-carboxylate], 15.8 nM. With `COc1ccc([C@@H](CC2CCN(C(=O)OC(C)(C)C)CC2)NC(=O)c2ccc(Cl)s2)cn1` [Example 70, (R)-tert-butyl 4-(2-(5-chlorothiophene-2-carboxamido)-2-(6-methoxypyridin-3-yl)ethyl)piperidine-1-carboxylate], the IC50 is 15.8 nM. With `CC(C)(C)OC(=O)N1CCC(CC(NC(=O)c2ccc(Br)c(F)c2)c2ccccc2)CC1` (stereo not drawn) [Example 71, tert-butyl 4-(2-(4-bromo-3-fluorobenzamido)-2-phenylethyl)piperidine-1-carboxylate] the figure was 15.8 nM; with `CC(C)(C)OC(=O)N1CCC(CC(NC(=O)c2ccc(I)cc2)c2ccccc2)CC1` (stereo not drawn) [Example 72, tert-butyl 4-(2-(4-iodobenzamido)-2-phenylethyl)piperidine-1-carboxylate], 15.8 nM. With `CN(C)c1nnc(C(CC2CCN(C(=O)OC(C)(C)C)CC2)NC(=O)c2ccc(Cl)s2)o1` (stereo not drawn) [Example 73, tert-butyl 4-(2-(5-chlorothiophene-2-carboxamido)-2-(5-(dimethylamino)-1,3,4-oxadiazol-2-yl)ethyl)piperidine-1-carboxylate] the figure was 15.8 nM; with `CC(C)C(CC1CCN(C(=O)OC(C)(C)C)CC1)NC(=O)c1ccc(Br)cc1` (stereo not drawn) [Example 74, tert-butyl 4-(2-(4-bromobenzamido)-3-methylbutyl)piperidine-1-carboxylate], 15.8 nM. For `CC(C)CC(CC1CCN(C(=O)OC(C)(C)C)CC1)NC(=O)c1ccc(Cl)cc1` (stereo not drawn) [Example 75, tert-butyl 4-(2-(4-chlorobenzamido)-4-methylpentyl)piperidine-1-carboxylate], the IC50 is 15.8 nM.

Take `CC(C)CC(CC1CCN(C(=O)OC(C)(C)C)CC1)NC(=O)c1ccc(F)cc1` (stereo not drawn) [Example 76, tert-butyl 4-(2-(4-fluorobenzamido)-4-methylpentyl)piperidine-1-carboxylate]: the IC50 is 15.8 nM.

As to `O=C(NC(CC1CCN(C(=O)OC2CC2)CC1)c1ccccc1)c1ccc(Cl)cc1` (stereo not drawn) [Example 77, cyclopropyl 4-(2-(4-chlorobenzamido)-2-phenylethyl)piperidine-1-carboxylate], the IC50 was 15.8 nM. With `CCc1ccc(C(=O)NC(CC2CCN(C(=O)OC(C)(C)C)CC2)C2CCCC2)s1` (stereo not drawn) [Example 78, tert-butyl 4-(2-cyclopentyl-2-(5-ethylthiophene-2-carboxamido)ethyl)piperidine-1-carboxylate] the figure was 15.8 nM; with `CC(C)CC(CC1CCN(C(=O)OC(C)(C)C)CC1)NC(=O)c1ccc(F)s1` (stereo not drawn) [Example 79, tert-butyl 4-(2-(5-fluorothiophene-2-carboxamido)-4-methylpentyl)piperidine-1-carboxylate], 15.8 nM; with `Cc1ccc(C(=O)NC(CC2CCN(C(=O)OC(C)(C)C)CC2)C2CCCCC2)s1` (stereo not drawn) [Example 80, tert-butyl 4-(2-cyclohexyl-2-(5-methylthiophene-2-carboxamido)ethyl)piperidine-1-carboxylate], 15.8 nM. Consider `CCOC(=O)N1CCC(C[C@H](NC(=O)c2ccc(Cl)cc2)c2ccccc2)CC1` [Example 81, (S)-ethyl 4-(2-(4-chlorobenzamido)-2-phenylethyl)piperidine-1-carboxylate], for which the IC50 is 15.8 nM. For the molecule `CCN(CCOC)c1nnc(C(CC2CCN(C(=O)OC(C)(C)C)CC2)NC(=O)c2ccc(C)s2)o1` (stereo not drawn) [Example 82, tert-butyl 4-(2-(5-(ethyl(2-methoxyethyl)amino)-1,3,4-oxadiazol-2-yl)-2-(5-methylthiophene-2-carboxamido)ethyl)piperidine-1-carboxylate], the IC50 was 15.8 nM.

In the case of `CC(C)(C)OC(=O)N1CCC(C[C@@H](CCNCc2ccccc2)NC(=O)c2ccc(Cl)s2)CC1` [Example 83, (S)-tert-butyl 4-(4-(benzylamino)-2-(5-chlorothiophene-2-carboxamido)butyl)piperidine-1-carboxylate], the IC50 was 15.8 nM. For the molecule `CC(C)(C)OC(=O)N1CCC(CC(NC(=O)c2ccc(Cl)c(F)c2)c2ccccc2)CC1` (stereo not drawn) [Example 84, tert-butyl 4-(2-(4-chloro-3-fluorobenzamido)-2-phenylethyl)piperidine-1-carboxylate], the IC50 is 20 nM. With `CCOC(=O)N1CCC(CC(NC(=O)c2ccc(F)cc2)c2ccc(OC)nc2)CC1` (stereo not drawn) [Example 85, ethyl 4-(2-(4-fluorobenzamido)-2-(6-methoxypyridin-3-yl)ethyl)piperidine-1-carboxylate] the figure was 20 nM; with `C#CCOc1ccc(C(=O)NC(CC2CCN(C(=O)OC(C)(C)C)CC2)c2ccccc2)cc1` (stereo not drawn) [Example 86, tert-butyl 4-(2-phenyl-2-(4-(prop-2-yn-1-yloxy)benzamido)ethyl)piperidine-1-carboxylate], 20 nM; with `CCCc1ccc(C(=O)NC(CC2CCN(C(=O)OC(C)(C)C)CC2)c2ccccc2)s1` (stereo not drawn) [Example 87, tert-butyl 4-(2-phenyl-2-(5-propylthiophene-2-carboxamido)ethyl)piperidine-1-carboxylate], 20 nM. With `CC(C)C(CC1CCN(C(=O)OC(C)(C)C)CC1)NC(=O)c1ccc(Cl)cc1` (stereo not drawn) [Example 88, tert-butyl 4-(2-(4-chlorobenzamido)-3-methylbutyl)piperidine-1-carboxylate] the figure was 20 nM; with `CCCOC(=O)N1CCC(CC(NC(=O)c2ccc(Cl)cc2)c2ccccc2)CC1` (stereo not drawn) [Example 89, propyl 4-(2-(4-chlorobenzamido)-2-phenylethyl)piperidine-1-carboxylate], 20 nM; with `CC(C)(C)OC(=O)N1CCC(C[C@H](NC(=O)c2ccc(Cl)cc2)C2CC2)CC1` [Example 90, (S)-tert-butyl 4-(2-(4-chlorobenzamido)-2-cyclopropylethyl)piperidine-1-carboxylate], 20 nM. With `CC(C)(C)OC(=O)N1CCC(CC(NC(=O)c2ccc(Br)cc2)C2CCCCC2)CC1` (stereo not drawn) [Example 91, tert-butyl 4-(2-(4-bromobenzamido)-2-cyclohexylethyl)piperidine-1-carboxylate] the figure was 20 nM; with `CC(C)(C)OC(=O)N1CCC(CC(NC(=O)c2ccc(F)s2)C2CCCCC2)CC1` (stereo not drawn) [Example 92, tert-butyl 4-(2-cyclohexyl-2-(5-fluorothiophene-2-carboxamido)ethyl)piperidine-1-carboxylate], 20 nM. As for `Cc1ccc(C(=O)NC(CC2CCN(C(=O)C(F)(F)c3ccccc3)CC2)c2ccccc2)s1` (stereo not drawn) [Example 93, N-(2-(1-(2,2-difluoro-2-phenylacetyl)piperidin-4-yl)-1-phenylethyl)-5-methylthiophene-2-carboxamide], the IC50 is 20 nM. With `Cc1ccc(C(=O)NC(CC2CCN(C(=O)C(F)(F)F)CC2)c2ccccc2)s1` (stereo not drawn) [Example 94, 5-methyl-N-(1-phenyl-2-(1-(2,2,2-trifluoroacetyl)piperidin-4-yl)ethyl)thiophene-2-carboxamide] the figure was 20 nM. As to `CCC(F)(F)C(=O)N1CCC(CC(NC(=O)c2ccc(C)s2)c2ccccc2)CC1` (stereo not drawn) [Example 95, N-(2-(1-(2,2-difluorobutanoyl)piperidin-4-yl)-1-phenylethyl)-5-methylthiophene-2-carboxamide], the IC50 is 20 nM.

Consider `CCCCN(CC)c1nnc(C(CC2CCN(C(=O)OC(C)(C)C)CC2)NC(=O)c2ccc(C)s2)o1` (stereo not drawn) [Example 96, tert-butyl 4-(2-(5-(butyl(ethyl)amino)-1,3,4-oxadiazol-2-yl)-2-(5-methylthiophene-2-carboxamido)ethyl)piperidine-1-carboxylate], for which the IC50 is 20 nM. For the molecule `CC(C)(C)OC(=O)N1CCC(CC(NC(=O)c2ccc(C3CC3)cc2)c2ccccc2)CC1` (stereo not drawn) [Example 97, tert-butyl 4-(2-(4-cyclopropylbenzamido)-2-phenylethyl)piperidine-1-carboxylate], the IC50 is 25.1 nM. With `CC(C)(C)OC(=O)N1CCC(CC(NC(=O)c2ccc(C3CC3)s2)c2ccccc2)CC1` (stereo not drawn) [Example 98, tert-butyl 4-(2-(5-cyclopropylthiophene-2-carboxamido)-2-phenylethyl)piperidine-1-carboxylate], the IC50 is 25.1 nM. With `CC(C)C(CC1CCN(C(=O)OC(C)(C)C)CC1)NC(=O)c1ccc(Cl)s1` (stereo not drawn) [Example 99, tert-butyl 4-(2-(5-chlorothiophene-2-carboxamido)-3-methylbutyl)piperidine-1-carboxylate] the figure was 25.1 nM. With `O=C(NC(CC1CCN(C(=O)OC2CCCC2)CC1)c1ccccc1)c1ccc(Cl)cc1` (stereo not drawn) [Example 100, cyclopentyl 4-(2-(4-chlorobenzamido)-2-phenylethyl)piperidine-1-carboxylate] the figure was 25.1 nM; with `CC(C)(C)OC(=O)N1CCC(CC(NC(=O)c2ccc(I)c(F)c2)c2ccccc2)CC1` (stereo not drawn) [Example 101, tert-butyl 4-(2-(3-fluoro-4-iodobenzamido)-2-phenylethyl)piperidine-1-carboxylate], 25.1 nM. Regarding `CCOC(=O)N1CCC(CC(NC(=O)c2ccc(Cl)cc2)c2ccccc2)CC1` (stereo not drawn) [Example 102, ethyl 4-(2-(4-chlorobenzamido)-2-phenylethyl)piperidine-1-carboxylate], the IC50 was 25.1 nM.
